{"source": "paper PMC12591170", "about": "“Glabridin‐Gold(I) Complex as a Novel Immunomodulatory Agent Targeting TrxR and MAPK Pathways for Synergistic Enhancement of Antitumor Immunity” (Advanced Science, 2025)", "key": {"HepG2 cells [1]": {"tested_on": "HepG2 cells", "test": "MTT antiproliferative assay, HepG2", "type": "cell-based, human", "method": "(§1) All cells were incubated at 37 °C by DMEM complete medium (containing 1% penicillin−streptomycin and 12% FBS) in 5% CO2 incubator. 2–5 × 10^3 cells were cultured in 96‐well plates and each well contained 100 µL complete medium. OXA was dissolved in water, and all other complexes were dissolved in DMF. After cells adhered in the wells, different concentrations of complexes were diluted in 100 µL complete medium and added in the wells. The final volume in the each well was 200 µL and the content of DMF was maximum 0.5%. After 72 h incubation, the antiproliferative activity was tested by MTT assay."}, "Hepa1-6 cells": {"tested_on": "Hepa1-6 cells", "test": "MTT antiproliferative assay, Hepa1-6", "type": "cell-based", "conditions": "Hepa 1-6 cells", "method": "as §1"}, "293T cells": {"tested_on": "293T cells", "test": "MTT assay, normal kidney cell line 293T", "type": "cell-based", "conditions": "72 h MTT assay, Mean ± SD", "method": "as §1"}, "[2]": {"test": "Solubility by UV absorbance", "type": "physicochemical", "conditions": "PBS: DMF = 200:1, 298K", "method": "Weigh a certain amount of 6d, dissolve it in a PBS: DMF = 200:1 solution, and mix to obtain the high‐concentration solution. Then dilute the original solution to prepare solutions of different concentrations. The ultraviolet absorbance values at the maximum absorption wavelength (237 nm) were measured in sequence, and the standard curve was plotted (Figure S40, Supporting Information). Prepare the saturated 6d solution by the same method. After centrifugation, take the supernatant and dilute it 7 times."}, "purified TrxR": {"tested_on": "purified TrxR", "test": "Purified TrxR activity assay (DTNB)", "type": "biochemical", "conditions": "0.625-20 µM", "method": "Different concentrations of complex 6d solution and 1.8 U purified TrxR were added to the wells (25 µL per well separately). Consequently, the reaction solution (20 mg mL^−1 BSA, 500 mM EDTA‐2Na, and 40 mg mL^−1 NADPH, diluted in a 1:1 mixture of PBS and water) was added to the 96 wells (225 µL per well). Finally, 25 mg mL^−1 DTNB solution was added (25 µL per well) and OD values were immediately measured at 405 nm. The linear growth at 405 nm was calculated to show the purified TrxR activity. Final concentrations of complex 6d were 0.625, 1.25, 2.5, 5, 10, 20 µM."}, "HepG2 cells [3]": {"tested_on": "HepG2 cells", "test": "MMP measurement (JC-1)", "type": "cell-based, human", "conditions": "HepG2, 24 h", "method": "12‐well plate was applied to incubate HepG2 cells (5 × 10^4 cells per wells). After overnight, cells were treated with DMF (0.1%), AF (4 µM) or different concentrations of 6d (2, 4, 8 µM) for 24 h. 2.5 µg mL^−1 JC‐1 probe was added in the wells after removing original liquid. 15 min later, PBS was applied to wash cells for two times. Then, the fluorescence images were captured by the fluorescence microscopy."}, "HepG2 cells [4]": {"tested_on": "HepG2 cells", "test": "Apoptosis assay (annexin V-EGFP/PI)", "type": "cell-based, human", "conditions": "HepG2, 24 h", "method": "4 × 10^5 HepG2 cells was seeded in 6‐well plates for overnight incubation. DMF (0.1%), AF (4 µM) or different concentrations of 6d (2, 4, 8 µM) were added in the wells for 24 h. PBS was applied to wash cells for two times, and cells were collected subsequently. After washing twice by PBS, Annexin V‐EGFP/PI Apoptosis Detection kit was used to dye the cells. Then, the apoptosis ratio was analyzed by flow cytometer."}, "HepG2 cells [5]": {"tested_on": "HepG2 cells", "test": "DAMPs / ICD effect (CRT, HMGB1, ATP release)", "type": "cell-based, human", "method": "6‐well plate was applied to incubate 2 × 10^5 HepG2 cells. […] After treatment, the liquid was collected for extracellular ATP release assay by ATP Assay kit.\n(§2) HepG2 cells were incubated in 6 cm culture dishes and treated with different complexes. The treated cells were lysed with lysis buffer (RIPA:PMSF:phosphatase inhibitor:protease inhibitor = 100:1:1:1). The lysed cells were further broken by sonication, and proteins were isolated by centrifugation. The protein concentrations were detected by BCA assay. 10% SDS PAGE gel was usually applied to separate the different kDa of proteins, and more than 200 kDa of proteins were separated using 8% SDS PAGE gel. After seperation, proteins were transferred onto polyvinylidene difluoride (PVDF) membranes. The target proteins were labeled by various specific primary antibodies at 4 °C overnight. Then, the membranes were treated with anti‐rabbit or anti‐mouse secondary antibody for 2 h. Tris buffered saline with tween 20 (TBST) was applied to wash the membranes after each operation above. The target proteins’ bands were detected by the enhanced chemiluminescence (ECL) procedure.\n(§3) 5 × 10^4 HepG2 cells were treated with complexes in 24‐well plates for 24 h. Subsequently, cells were fixed with 4% paraformaldehyde. Various specific antibodies were added for incubation at 4 °C overnight after cells were permeabilized with Triton X‐100 (except for membrane proteins) and blocked with BSA. Then, the cells were incubated with fluorescently‐labeled secondary antibodies in darkness for 2 h. After that, DAPI was added to stain nuclear in darkness. PBS was applied for washing after each operation above (Tris buffered saline (TBS) was applied for washing if phosphorylated protein was analyzed). The cell images were captured by the fluorescence microscopy."}, "immature DCs": {"tested_on": "immature DCs", "test": "DC maturation assay with medium of treated Hepa1-6 cells", "type": "cell-based, C57BL/6 mouse", "conditions": "24 h", "method": "The monocytes were extracted from the leg bone marrow of a C57BL/6 mouse and incubated in the 1640 complete medium with rmGM‐CSF (20 ng mL^−1) and IL‐4 (20 ng mL^−1). The medium was replaced partially every other day, and immature DCs were differentiated after 7 days. […] The medium from treated Hepa1‐6 cells was collected and coincubated with the differentiated DCs for 24 h. After cells collection, the coincubated DCs were labeled with CD11c antibody, CD80 antibody and CD86 antibody. Then, the DC maturation ratio was analyzed by a flow cytometer."}, "PD-L1": {"tested_on": "PD-L1", "test": "PD-L1 expression in HepG2 (western blot, immunofluorescence, flow cytometry)", "type": "cell-based, human", "conditions": "HepG2, 24 h", "method": "as §2, §3\n4 × 10^5 HepG2 cells were incubated in 6‐well plates, and complexes were added in the wells. The cells were collected after incubation, and the treated cells were labeled with probes or fluorescently‐labeled antibodies. A flow cytometer was applied to analyze the labeled cells."}, "[6]": {"tested_on": "MAPK pathway (phosphorylated MEK1/2 and ERK1/2)", "test": "In vivo MAPK pathway in tumor tissue", "design": "species or system C57BL/6 mice", "conditions": "western blot, day 13"}, "[7]": {"conditions": "mouse"}}, "note": "“Also recorded” adds a separate entry of the source.", "data": [{"smiles": "CCn1ccn(CCCCCOc2ccc([C@@H]3COc4c(ccc5c4C=CC(C)(C)O5)C3)c(OCCCCCn3ccn(CC)[c]3=[Au][Br])c2)[c]1=[Au][Br]", "note": "[6d]", "values": [{"measurement": "IC50", "setting": "HepG2 cells [1]; 72 h MTT assay, Mean ± SD", "result": "2.54 ± 0.13", "unit": "µM"}, {"measurement": "times more toxic than GLA", "setting": "HepG2 cells [1]; HepG2 cells", "result": 16, "unit": "times"}, {"measurement": "times more toxic than GLA", "setting": "Hepa1-6 cells", "result": 34, "unit": "times"}, {"measurement": "IC50", "setting": "293T cells", "result": "5.14 ± 0.3", "unit": "µM"}, {"measurement": "solubility", "setting": "[2]", "result": 108, "unit": "µg/mL"}, {"measurement": "purified TrxR activity", "setting": "purified TrxR", "result": "suppressed TrxR activity"}, {"measurement": "mitochondrial membrane potential (MMP)", "setting": "HepG2 cells [3]", "result": "decreased MMP"}, {"measurement": "apoptosis", "setting": "HepG2 cells [4]", "result": "apoptosis was observed"}, {"measurement": "time required for ATP release", "setting": "HepG2 cells [5]; HepG2, 8 µM, ATP assay kit", "result": 48, "unit": "h"}, {"measurement": "CRT expression (western blot)", "setting": "HepG2 cells [5]; HepG2, 24 h", "result": "CRT upregulation"}, {"measurement": "HMGB1 expression (western blot)", "setting": "HepG2 cells [5]; HepG2, 24 h", "result": "HMGB1 downregulation"}, {"measurement": "DC maturation", "setting": "immature DCs", "result": "significantly induced DC maturation"}, {"measurement": "PD-L1 expression (western blot)", "setting": "PD-L1", "result": "downregulated; also recorded: significantly inhibited"}, {"measurement": "PD-L1 expression on the membrane surface", "setting": "PD-L1; immunofluorescence and flow cytometry", "result": "reduced"}, {"measurement": "MAPK pathway activation (phosphorylation of MEK1/2 and ERK1/2) in tumor tissue", "setting": "[6]", "result": "significantly inhibited"}, {"measurement": "metabolic stability in whole blood", "setting": "[7]; 2 h", "result": "high metabolic stability"}, {"measurement": "T1/2", "setting": "[7]; blood", "result": "∞"}, {"measurement": "Percent Remaining (%) (Mean, n=2) 0 min", "setting": "[7]; blood, 0 h", "result": 100, "unit": "%"}, {"measurement": "Percent Remaining (%) (Mean, n=2) 5 min", "setting": "[7]; blood, 5 min", "result": 98.8, "unit": "%"}, {"measurement": "Percent Remaining (%) (Mean, n=2) 15 min", "setting": "[7]; blood, 0.25 h", "result": 107, "unit": "%"}, {"measurement": "Percent Remaining (%) (Mean, n=2) 30 min", "setting": "[7]; blood, 0.5 h", "result": 103, "unit": "%"}, {"measurement": "Percent Remaining (%) (Mean, n=2) 60 min", "setting": "[7]; blood, 1 h", "result": 103, "unit": "%"}, {"measurement": "Percent Remaining (%) (Mean, n=2) 120 min", "setting": "[7]; blood, 2 h", "result": 108, "unit": "%"}]}]}
